Reference: PMC2633282, “A P2X receptor from the tardigrade species Hypsibius dujardini with fast kinetics and sensitivity to zinc and copper” (BMC Evolutionary Biology, 2009)

What was measured:
Experiment in all cases: two-electrode voltage clamp, Xenopus oocytes
Type in all cases: cell-based
HdP2X [1] = target: T1, HdP2X (Hypsibius dujardini, UniProt B8RGS2)
T1 construct: full-length, 480 residues, cDNA clone in pSPORT1; cRNA in Xenopus oocytes; P2X receptors are trimers
T1 sequence (B8RGS2 1-480): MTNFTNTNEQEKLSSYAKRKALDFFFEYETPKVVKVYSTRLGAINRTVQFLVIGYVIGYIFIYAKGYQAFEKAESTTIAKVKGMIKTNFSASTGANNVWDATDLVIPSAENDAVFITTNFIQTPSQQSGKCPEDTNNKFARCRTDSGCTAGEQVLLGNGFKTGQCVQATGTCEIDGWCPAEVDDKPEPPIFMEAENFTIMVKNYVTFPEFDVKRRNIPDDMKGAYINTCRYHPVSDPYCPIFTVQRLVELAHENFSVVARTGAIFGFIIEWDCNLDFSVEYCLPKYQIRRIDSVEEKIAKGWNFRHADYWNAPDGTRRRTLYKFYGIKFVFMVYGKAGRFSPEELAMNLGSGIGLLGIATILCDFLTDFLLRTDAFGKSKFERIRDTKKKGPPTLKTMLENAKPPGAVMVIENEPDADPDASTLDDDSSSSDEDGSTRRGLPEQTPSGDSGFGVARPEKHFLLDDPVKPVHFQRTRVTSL

HdP2X [2] = target: T1, HdP2X; remark: listed apart in the source
HdP2X [3] = target: T1, HdP2X; details: agonist; -60 mV; ND96 with Ba2+ for Ca2+, pH 7.5

| IC50 (HdP2X [1]) [µM] | EC50 (HdP2X [2]) [µM] | Compound | other results |
| --- | --- | --- | --- |
| 22.6 | – | Cc1ccc(C(=O)Nc2ccc(S(=O)(=O)O)c3cc(S(=O)(=O)O)cc(S(=O)(=O)O)c23)cc1NC(=O)c1cccc(NC(=O)Nc2cccc(C(=O)Nc3cc(C(=O)Nc4ccc(S(=O)(=O)O)c5cc(S(=O)(=O)O)cc(S(=O)(=O)O)c45)ccc3C)c2)c1 [suramin] | – |
| – | 12.2 | Nc1ncnc2c1ncn2[C@@H]1O[C@H](COP(=O)(O)OP(=O)(O)OP(=O)(O)O)[C@@H](OC(=O)c2ccc(C(=O)c3ccccc3)cc2)[C@H]1O [Bz-ATP, 2',3'-O-4-Benzoylbenzoyl ATP] | – |

Second part, the compound before the results:

| Compound | IC50 (HdP2X [1]) [µM] | EC50 (HdP2X [2]) [µM] | other results |
| --- | --- | --- | --- |
| Cc1nc(N=Nc2ccc(S(=O)(=O)O)cc2S(=O)(=O)O)c(COP(=O)(O)O)c(C=O)c1O [PPADS, pyridoxal-phosphate-6-azophenyl-2',4'-disulfonic acid] | 15 | – | – |
| Nc1ncnc2c1ncn2[C@@H]1O[C@H](COP(=O)(O)OP(=O)(O)OP(=O)(O)O)[C@@H](O)[C@H]1O [ATP] | – | 44.5 | – |
| Nc1ncnc2c1ncn2[C@@H]1O[C@H](COP(=O)(O)CP(=O)(O)OP(=O)(O)O)[C@@H](O)[C@H]1O [αβ-methylene ATP, α,β-methylene-adenosine 5'-triphosphate] | – | – | % of 100 μM ATP response at 100 μM (HdP2X [3]): < 50% |
